Where a SMILES comes first, the peptide text is derived from it. The star is where a group is joined. Cbz = O=C(OCc1ccccc1)*; CH2F = FC*
How the values were obtained:
[1] = target: Pseudomonas aeruginosa hemolytic phospholipase C PlcHR2, wild type (Pseudomonas aeruginosa, UniProt P06200); type: biochemical
[2] = test system: HUVEC; type: cell-based, Homo sapiens

Chain of Pseudomonas aeruginosa hemolytic phospholipase C PlcHR2, wild type (P06200 39-730 limits assumed): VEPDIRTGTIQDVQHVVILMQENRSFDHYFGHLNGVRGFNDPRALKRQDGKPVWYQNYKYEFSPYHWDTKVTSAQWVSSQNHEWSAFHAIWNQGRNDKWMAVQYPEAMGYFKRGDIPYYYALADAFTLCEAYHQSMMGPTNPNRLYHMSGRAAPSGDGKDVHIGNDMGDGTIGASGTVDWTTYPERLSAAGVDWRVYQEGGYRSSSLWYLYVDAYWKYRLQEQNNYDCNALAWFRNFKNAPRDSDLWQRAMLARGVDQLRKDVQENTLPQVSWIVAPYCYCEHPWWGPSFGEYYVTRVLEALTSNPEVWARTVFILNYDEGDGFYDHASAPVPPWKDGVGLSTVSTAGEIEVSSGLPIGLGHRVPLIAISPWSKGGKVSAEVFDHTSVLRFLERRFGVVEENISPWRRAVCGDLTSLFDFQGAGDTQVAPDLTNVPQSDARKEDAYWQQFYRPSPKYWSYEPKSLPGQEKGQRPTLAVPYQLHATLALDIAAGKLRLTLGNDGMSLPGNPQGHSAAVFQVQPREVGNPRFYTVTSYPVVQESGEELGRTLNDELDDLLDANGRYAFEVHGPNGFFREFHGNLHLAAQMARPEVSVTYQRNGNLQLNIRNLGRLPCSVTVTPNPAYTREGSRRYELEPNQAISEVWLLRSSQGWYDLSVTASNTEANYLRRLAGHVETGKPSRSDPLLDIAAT

For `C[N+](C)(C)CCOP(=O)([O-])Oc1ccc([N+](=O)[O-])cc1` [NPPC, ρ-nitrophenyl-phosphorylcholine], the Km ([1]; pH 7.2) was 19 mM, the Vmax ([1]; pH 7.2) was 147 ± 6 µmol/min/mg and the kcat ([1]; pH 7.2, 37° C.) was 192 s⁻¹.

For `COC(=O)C[C@H](NC(=O)[C@H](C)NC(=O)[C@@H](NC(=O)OCc1ccccc1)C(C)C)C(=O)CF` [Z-VAD-FMK] (Cbz-Val-Ala-Asp(OMe)-CH2F), the “reduction of PlcHR2-induced LDH release” value [2] was “reduced the amount of LDH release”.

From patent US20100284992A1 (priority 2006, published 2010)
